The results in this text go back to PubChem BioAssay (NCI).

Among the test systems are T-47D breast; SW-620 colon; UO-31 renal; SF-539 CNS; EKVX NSCLC; LOX IMVI melanoma; TK-10 renal; HOP-92 NSCLC; SK-MEL-28 melanoma; HL-60(TB) leukemia.
Assay in all cases: NCI-60 cell line screen, 48 h

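48-hour exposure; five concentrations; linearly interpolated endpoints. GI50 is the concentration that inhibits growth by half. TGI: concentration producing complete growth inhibition.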

`COc1cc(/C=C2\C(=O)Nc3cccc(Cl)c32)cc(OC)c1OC`: the GI50 with T-47D breast, in the assay on SW-620 colon, with UO-31 renal, in the assay on SF-539 CNS, with EKVX NSCLC and in the assay on LOX IMVI melanoma was more than 100 µM each time. Moreover, the GI50 in the assay with TK-10 renal is more than 100 µM; in the assay on HOP-92 NSCLC it was 23.9 µM; in the assay with SK-MEL-28 melanoma, more than 100 µM; with HL-60(TB) leukemia it was 11 µM. Besides, the TGI with T-47D breast, with SW-620 colon, in the assay with UO-31 renal, with SF-539 CNS, with EKVX NSCLC and with LOX IMVI melanoma was more than 100 µM each time. The TGI in the assay on TK-10 renal is more than 100 µM; with HOP-92 NSCLC, 93.2 µM; with SK-MEL-28 melanoma it was more than 100 µM; with HL-60(TB) leukemia, more than 100 µM.
Consider `COc1cc2c(cc1OCCCCOc1ccc(-c3nc4ccccc4s3)cc1)N=C[C@@H]1CCCN1C2=O`, for which the GI50 was 0.339 µM in the assay with T-47D breast; 0.426 µM in the assay with SW-620 colon; 0.581 µM in the assay on UO-31 renal; 0.768 µM in the assay with SF-539 CNS; 2.56 µM in the assay with EKVX NSCLC; 0.73 µM in the assay with LOX IMVI melanoma. Also, the GI50 in the assay on TK-10 renal was 1.21 µM; in the assay on HOP-92 NSCLC, 0.335 µM; in the assay on SK-MEL-28 melanoma it was 2.18 µM; with HL-60(TB) leukemia it was 0.384 µM. Also, the TGI in the assay with T-47D breast came out at 1.45 µM; in the assay on SW-620 colon, 1.77 µM; with UO-31 renal, 2.43 µM; with SF-539 CNS, 2 µM; with EKVX NSCLC, 6.39 µM; with LOX IMVI melanoma, 1.96 µM. Moreover, the TGI came to 5.17 µM in the assay on TK-10 renal, 0.957 µM in the assay with HOP-92 NSCLC, 4.95 µM with SK-MEL-28 melanoma and 16.5 µM in the assay on HL-60(TB) leukemia.
Consider `O=C(Nc1ccccc1)Nc1cccc(Oc2nnc(Cl)c3ccccc23)c1`, for which the GI50 was 0.863 µM in the assay with T-47D breast; 8.41 µM in the assay with SW-620 colon; 3.98 µM with UO-31 renal; 2.81 µM in the assay on SF-539 CNS; 2.31 µM in the assay on EKVX NSCLC; 3.46 µM in the assay on LOX IMVI melanoma. Besides, the GI50 with TK-10 renal was 6.08 µM; in the assay on HOP-92 NSCLC it was 3.09 µM; in the assay with SK-MEL-28 melanoma it was 3.57 µM; in the assay with HL-60(TB) leukemia, 2.7 µM. Moreover, the TGI in the assay on T-47D breast was 10.8 µM; in the assay on SW-620 colon, more than 25 µM; in the assay on UO-31 renal, 19.6 µM; with SF-539 CNS it was 6.4 µM; in the assay with EKVX NSCLC, 12.1 µM; with LOX IMVI melanoma it was 6.8 µM. For the same molecule, the TGI is 14.9 µM in the assay on TK-10 renal, 11.3 µM in the assay on HOP-92 NSCLC, 12.7 µM with SK-MEL-28 melanoma and more than 25 µM in the assay on HL-60(TB) leukemia.
Take `Nc1nc(-c2cccc([N+](=O)[O-])c2)cc(-c2cc(-c3cccc([N+](=O)[O-])c3)nc(N)n2)n1`: the TGI with T-47D breast, in the assay with SW-620 colon, in the assay on UO-31 renal, in the assay with SF-539 CNS, in the assay with EKVX NSCLC and with LOX IMVI melanoma was more than 100 µM each time. Besides, the TGI in the assay with TK-10 renal, with HOP-92 NSCLC, in the assay on SK-MEL-28 melanoma and in the assay on HL-60(TB) leukemia was more than 100 µM in each case.
In the case of `O=C1NN(c2ccccc2)C(=O)/C1=C/c1ccc(Br)o1`, the GI50 was 18.9 µM in the assay on T-47D breast; 4.85 µM with SW-620 colon; 8.8 µM with UO-31 renal; 20.5 µM in the assay with SF-539 CNS; 1.54 µM in the assay on EKVX NSCLC; 5.42 µM with LOX IMVI melanoma. In addition, the GI50 was 13.2 µM with TK-10 renal, 7.03 µM with SK-MEL-28 melanoma and 10.5 µM in the assay with HL-60(TB) leukemia. The TGI was 52.3 µM in the assay on T-47D breast; 24.5 µM with SW-620 colon; more than 64.1 µM in the assay with UO-31 renal; 41.9 µM in the assay with SF-539 CNS; 36.6 µM in the assay with EKVX NSCLC; 22.4 µM in the assay with LOX IMVI melanoma. Further, the TGI was 33.7 µM in the assay with TK-10 renal, 3.33 µM in the assay with HOP-92 NSCLC, 29.8 µM in the assay on SK-MEL-28 melanoma and more than 81.1 µM in the assay on HL-60(TB) leukemia.
As to `CC(C)c1ccc(NC(=S)NC(=O)c2ccccc2)cc1`, the TGI was 77.2 µM with T-47D breast; 62.8 µM in the assay with SW-620 colon; 32.7 µM in the assay with UO-31 renal; more than 100 µM in the assay with SF-539 CNS; more than 100 µM in the assay on EKVX NSCLC; 31.2 µM with LOX IMVI melanoma. The TGI is 50.1 µM in the assay on TK-10 renal, more than 100 µM in the assay on HOP-92 NSCLC, 48.3 µM in the assay on SK-MEL-28 melanoma and 32.3 µM with HL-60(TB) leukemia.
Take `CC1(C)CC(Nc2ccc(Nc3ccccc3)cc2)CC(C)(C)N1`: the TGI in the assay with T-47D breast came to 37.5 µM; in the assay on SW-620 colon, 49 µM; in the assay with UO-31 renal, 24.6 µM; in the assay with SF-539 CNS, 41.9 µM; in the assay on EKVX NSCLC, 81.4 µM; in the assay with LOX IMVI melanoma it was 43.1 µM. Further, the TGI in the assay on TK-10 renal amounted to 48.5 µM; in the assay with HOP-92 NSCLC it was 33.9 µM; with SK-MEL-28 melanoma, 33.8 µM; with HL-60(TB) leukemia it was 19.2 µM.
Turning to `COc1ccccc1-c1cc(=O)c2ccc(OC)c(OC)c2o1`, the TGI is 75.5 µM in the assay with T-47D breast; more than 100 µM with SW-620 colon; more than 100 µM in the assay on UO-31 renal; more than 100 µM with SF-539 CNS; more than 100 µM with EKVX NSCLC; more than 100 µM in the assay on LOX IMVI melanoma. Further, the TGI in the assay with TK-10 renal, in the assay with HOP-92 NSCLC, in the assay with SK-MEL-28 melanoma and with HL-60(TB) leukemia was more than 100 µM throughout.
As for `CN(C)CCCn1c2nc(=O)[nH]c(=O)c-2nc2cc(Cl)c(Cl)cc21`, the GI50 is 1.76 µM with T-47D breast; 2.58 µM in the assay with SW-620 colon; 2.73 µM in the assay with UO-31 renal; 3.24 µM with SF-539 CNS; 13.8 µM in the assay on EKVX NSCLC; 2.37 µM with LOX IMVI melanoma. The GI50 in the assay with TK-10 renal was 4.62 µM; in the assay with HOP-92 NSCLC it was 12.2 µM; in the assay on SK-MEL-28 melanoma, 18.9 µM; with HL-60(TB) leukemia it was 3.83 µM. The TGI is 5.86 µM in the assay with T-47D breast; 11.7 µM with SW-620 colon; 10.9 µM in the assay on UO-31 renal; 12.2 µM in the assay with SF-539 CNS; 28.5 µM in the assay on EKVX NSCLC; 7.36 µM with LOX IMVI melanoma. Moreover, the TGI in the assay with TK-10 renal is 14.1 µM; with HOP-92 NSCLC, 25.8 µM; in the assay with SK-MEL-28 melanoma, 34 µM; in the assay with HL-60(TB) leukemia it was 9.97 µM.
